{"source": "ChEMBL document CHEMBL5465560", "about": "“Selectivity Literature for EUbOPEN Chemogenomic Library” (2024)", "key": {"[1]": {"target": "T1, Homeodomain-interacting protein kinase 4 (Homo sapiens) (UniProt Q8NE63)", "T1 sequence (whole entry)": "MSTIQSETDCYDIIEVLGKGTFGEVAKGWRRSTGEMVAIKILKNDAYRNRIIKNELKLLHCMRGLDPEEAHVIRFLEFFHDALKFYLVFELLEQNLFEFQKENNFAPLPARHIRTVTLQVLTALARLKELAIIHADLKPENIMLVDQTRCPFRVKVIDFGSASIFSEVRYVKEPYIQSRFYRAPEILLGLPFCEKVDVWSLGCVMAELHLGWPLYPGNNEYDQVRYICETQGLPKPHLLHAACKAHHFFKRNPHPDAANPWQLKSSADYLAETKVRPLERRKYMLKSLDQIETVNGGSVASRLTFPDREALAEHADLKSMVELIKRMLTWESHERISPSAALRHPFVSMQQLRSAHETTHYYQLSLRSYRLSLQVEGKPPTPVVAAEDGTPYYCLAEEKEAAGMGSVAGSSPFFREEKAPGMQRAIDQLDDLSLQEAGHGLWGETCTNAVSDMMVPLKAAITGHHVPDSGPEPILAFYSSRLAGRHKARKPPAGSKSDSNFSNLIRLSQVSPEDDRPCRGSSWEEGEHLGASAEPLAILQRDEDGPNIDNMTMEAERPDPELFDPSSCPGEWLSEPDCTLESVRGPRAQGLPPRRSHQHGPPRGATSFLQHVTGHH", "assay": "Selectivity interaction (KinomeScan (DiscoverX)) EUB0001049a HIPK4", "details": "at 1 µM"}, "[2]": {"target": "T2, Histone-lysine N-methyltransferase EHMT1 (Homo sapiens) (UniProt Q9H9B1)", "T2 sequence (whole entry)": "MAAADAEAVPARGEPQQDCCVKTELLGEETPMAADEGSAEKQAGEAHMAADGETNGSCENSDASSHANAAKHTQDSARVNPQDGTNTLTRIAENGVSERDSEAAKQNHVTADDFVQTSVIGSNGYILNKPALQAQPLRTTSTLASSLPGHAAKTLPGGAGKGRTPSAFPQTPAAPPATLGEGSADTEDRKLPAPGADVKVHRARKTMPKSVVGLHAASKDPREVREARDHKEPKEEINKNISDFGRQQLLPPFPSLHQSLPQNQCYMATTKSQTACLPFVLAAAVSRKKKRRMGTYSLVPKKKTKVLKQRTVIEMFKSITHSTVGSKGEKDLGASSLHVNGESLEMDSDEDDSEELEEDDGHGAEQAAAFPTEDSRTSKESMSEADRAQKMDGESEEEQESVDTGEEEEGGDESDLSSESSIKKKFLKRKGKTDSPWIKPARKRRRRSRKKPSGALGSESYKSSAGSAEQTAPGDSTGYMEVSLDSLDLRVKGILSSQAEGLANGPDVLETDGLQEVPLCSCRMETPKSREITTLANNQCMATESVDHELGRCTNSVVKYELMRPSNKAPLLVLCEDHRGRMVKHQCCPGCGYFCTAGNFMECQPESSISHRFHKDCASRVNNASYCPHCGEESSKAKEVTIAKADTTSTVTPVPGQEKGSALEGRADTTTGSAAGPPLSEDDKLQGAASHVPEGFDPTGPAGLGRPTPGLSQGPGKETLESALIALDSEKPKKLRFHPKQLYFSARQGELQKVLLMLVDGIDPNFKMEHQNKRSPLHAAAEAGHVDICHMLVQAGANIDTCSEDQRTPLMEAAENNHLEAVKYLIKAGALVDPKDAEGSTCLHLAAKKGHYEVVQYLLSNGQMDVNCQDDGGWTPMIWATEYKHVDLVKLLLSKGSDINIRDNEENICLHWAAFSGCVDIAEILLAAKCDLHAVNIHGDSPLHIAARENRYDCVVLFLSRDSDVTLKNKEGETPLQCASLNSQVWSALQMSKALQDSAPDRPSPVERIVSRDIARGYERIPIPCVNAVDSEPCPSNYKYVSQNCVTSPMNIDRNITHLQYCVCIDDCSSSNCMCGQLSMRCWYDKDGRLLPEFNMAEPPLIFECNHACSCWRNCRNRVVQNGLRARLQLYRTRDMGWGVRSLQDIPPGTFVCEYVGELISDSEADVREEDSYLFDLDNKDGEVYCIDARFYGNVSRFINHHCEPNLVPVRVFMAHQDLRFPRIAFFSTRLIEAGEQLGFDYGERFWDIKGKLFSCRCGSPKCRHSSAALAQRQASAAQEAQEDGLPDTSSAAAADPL", "details": "at 10 µM"}, "[3]": {"target": "T3, Serine/threonine-protein kinase Nek2 (Homo sapiens) (UniProt P51955)", "T3 sequence (whole entry)": "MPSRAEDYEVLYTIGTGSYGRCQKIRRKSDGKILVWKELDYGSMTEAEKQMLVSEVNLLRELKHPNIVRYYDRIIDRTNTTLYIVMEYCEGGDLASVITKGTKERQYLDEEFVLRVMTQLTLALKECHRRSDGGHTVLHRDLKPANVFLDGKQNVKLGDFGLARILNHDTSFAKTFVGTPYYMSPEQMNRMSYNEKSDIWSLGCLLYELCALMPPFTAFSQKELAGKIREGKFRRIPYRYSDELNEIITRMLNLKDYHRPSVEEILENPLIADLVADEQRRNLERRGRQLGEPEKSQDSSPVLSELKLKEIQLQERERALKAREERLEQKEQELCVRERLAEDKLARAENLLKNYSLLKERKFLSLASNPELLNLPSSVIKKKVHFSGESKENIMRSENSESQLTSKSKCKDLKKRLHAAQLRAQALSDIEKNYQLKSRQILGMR", "assay": "Selectivity interaction (Kinase panel (DSF assay)) EUB0001558a NEK2"}, "[4]": {"target": "ATPase family AAA domain-containing protein 2B (Homo sapiens) (UniProt Q9ULI0)", "sequence (Q9ULI0 whole entry, the tested form may be a part)": "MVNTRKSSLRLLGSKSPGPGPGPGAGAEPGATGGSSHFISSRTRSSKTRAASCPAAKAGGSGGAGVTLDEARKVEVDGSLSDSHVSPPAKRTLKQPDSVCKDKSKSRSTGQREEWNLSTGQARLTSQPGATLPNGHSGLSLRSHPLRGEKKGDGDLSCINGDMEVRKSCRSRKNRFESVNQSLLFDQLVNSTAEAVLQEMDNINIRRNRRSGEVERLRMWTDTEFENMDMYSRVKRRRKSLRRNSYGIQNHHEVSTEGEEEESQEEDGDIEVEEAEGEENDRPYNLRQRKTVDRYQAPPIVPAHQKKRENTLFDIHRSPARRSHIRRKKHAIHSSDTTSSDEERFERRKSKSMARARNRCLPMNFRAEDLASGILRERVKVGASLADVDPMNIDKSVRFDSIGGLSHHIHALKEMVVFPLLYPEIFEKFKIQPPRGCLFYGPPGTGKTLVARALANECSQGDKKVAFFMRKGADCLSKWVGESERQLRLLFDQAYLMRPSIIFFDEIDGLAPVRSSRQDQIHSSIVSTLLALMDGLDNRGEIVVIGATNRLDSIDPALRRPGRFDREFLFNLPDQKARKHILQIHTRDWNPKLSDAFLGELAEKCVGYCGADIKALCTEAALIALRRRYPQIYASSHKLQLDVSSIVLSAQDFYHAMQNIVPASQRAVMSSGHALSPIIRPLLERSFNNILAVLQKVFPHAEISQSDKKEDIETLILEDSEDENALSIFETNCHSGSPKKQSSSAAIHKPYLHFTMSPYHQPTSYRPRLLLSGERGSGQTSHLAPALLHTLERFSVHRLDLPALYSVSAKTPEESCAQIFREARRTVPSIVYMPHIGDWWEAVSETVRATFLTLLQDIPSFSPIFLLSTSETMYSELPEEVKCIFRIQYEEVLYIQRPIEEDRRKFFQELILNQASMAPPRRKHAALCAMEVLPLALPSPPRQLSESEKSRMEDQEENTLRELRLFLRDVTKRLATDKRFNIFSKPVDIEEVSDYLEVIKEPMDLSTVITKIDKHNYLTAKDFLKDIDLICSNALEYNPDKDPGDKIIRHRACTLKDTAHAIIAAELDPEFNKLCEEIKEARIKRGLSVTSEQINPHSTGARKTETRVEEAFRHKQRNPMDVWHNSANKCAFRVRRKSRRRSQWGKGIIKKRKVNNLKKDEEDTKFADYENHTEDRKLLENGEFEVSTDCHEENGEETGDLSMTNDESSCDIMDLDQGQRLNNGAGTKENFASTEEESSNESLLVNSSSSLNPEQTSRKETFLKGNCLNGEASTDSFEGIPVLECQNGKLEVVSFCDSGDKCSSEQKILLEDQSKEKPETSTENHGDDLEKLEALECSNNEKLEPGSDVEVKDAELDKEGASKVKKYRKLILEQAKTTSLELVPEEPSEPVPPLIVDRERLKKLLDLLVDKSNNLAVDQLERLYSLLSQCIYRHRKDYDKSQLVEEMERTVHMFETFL", "assay": "Selectivity interaction (Bromodomain panel (DSF asssay)) EUB0000270b ATAD2B"}, "[5]": {"target": "T4, Aurora kinase C (Homo sapiens) (UniProt Q9UQB9)", "T4 sequence (whole entry)": "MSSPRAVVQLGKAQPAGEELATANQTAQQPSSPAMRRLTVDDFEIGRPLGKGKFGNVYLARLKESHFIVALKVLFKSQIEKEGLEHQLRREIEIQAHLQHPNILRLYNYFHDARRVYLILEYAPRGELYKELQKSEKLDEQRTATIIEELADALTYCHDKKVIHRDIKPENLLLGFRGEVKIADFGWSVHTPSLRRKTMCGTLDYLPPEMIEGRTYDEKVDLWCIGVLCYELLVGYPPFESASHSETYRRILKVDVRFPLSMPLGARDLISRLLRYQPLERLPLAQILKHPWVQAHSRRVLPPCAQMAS", "assay": "Selectivity interaction (Kinase panel (Invitrogen)) EUB0000639a AURKC", "details": "at 200 nM"}, "[6]": {"target": "Serine/threonine-protein kinase 24 (Homo sapiens) (UniProt Q9Y6E0)", "sequence (Q9Y6E0 whole entry, looked up)": "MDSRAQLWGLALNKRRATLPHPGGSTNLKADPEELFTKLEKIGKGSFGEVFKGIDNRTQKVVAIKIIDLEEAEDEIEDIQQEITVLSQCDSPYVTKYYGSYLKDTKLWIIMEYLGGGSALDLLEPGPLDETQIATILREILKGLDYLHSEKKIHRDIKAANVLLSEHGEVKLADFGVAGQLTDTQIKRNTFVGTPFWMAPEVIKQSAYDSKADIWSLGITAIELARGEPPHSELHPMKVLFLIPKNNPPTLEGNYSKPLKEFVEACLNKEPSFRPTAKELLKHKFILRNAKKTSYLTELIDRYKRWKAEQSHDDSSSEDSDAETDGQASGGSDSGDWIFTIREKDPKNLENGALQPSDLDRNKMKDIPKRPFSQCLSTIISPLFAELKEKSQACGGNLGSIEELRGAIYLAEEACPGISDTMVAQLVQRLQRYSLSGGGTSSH", "assay": "Selectivity interaction (ActivX KiNativ screen (kinase selectivity in THP-1 cell lysates)) EUB0000639a STK24", "format": "subcellular", "details": "lysate, at 0.01 µM"}, "[7]": {"target": "Mitogen-activated protein kinase 1 (Homo sapiens, UniProt P28482)", "sequence (P28482 whole entry)": "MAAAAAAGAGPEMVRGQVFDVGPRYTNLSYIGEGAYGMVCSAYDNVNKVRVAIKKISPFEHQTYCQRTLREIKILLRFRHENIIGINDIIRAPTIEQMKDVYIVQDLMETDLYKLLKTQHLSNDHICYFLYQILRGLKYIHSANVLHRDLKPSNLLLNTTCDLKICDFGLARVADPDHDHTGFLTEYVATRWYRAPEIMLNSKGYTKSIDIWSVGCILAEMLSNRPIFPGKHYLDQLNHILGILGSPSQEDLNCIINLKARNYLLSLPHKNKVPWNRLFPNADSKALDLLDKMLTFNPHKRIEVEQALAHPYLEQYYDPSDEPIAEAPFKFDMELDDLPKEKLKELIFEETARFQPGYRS", "assay": "Selectivity interaction (Ambit KINOMEscan and KiNATiv profiling in Jurkat cells) EUB0000090b MAPK1", "format": "cell-based", "details": "at 1 µM"}}}
{"compound": "COc1cc(Nc2nc(C)cc(-c3cnn4nc(OC)ccc34)n2)cc(C(F)(F)F)c1", "values": [{"measurement": "% of control", "setting": "[1]", "value": 92, "unit": "%"}]}
{"compound": "CNCCN1CCC(c2cc(CN(C)C(=O)c3cccc(Oc4ccccc4)c3)ccn2)CC1", "values": [{"measurement": "% activity", "setting": "[2]", "value": "> 90", "unit": "%"}]}
{"compound": "CC(C)(O)[C@H](F)CN1Cc2cc(NC(=O)c3cnn4cccnc34)c(N3CCOCC3)cc2C1=O", "values": [{"measurement": "dTM", "setting": "[3]", "value": 0.4, "unit": "K"}]}
{"compound": "Cc1cc(CN)cc(C)c1-c1ncn(C)c1-c1cncn1C", "values": [{"measurement": "dTM", "setting": "[4]", "value": -1.47, "unit": "K"}]}
{"compound": "CC[C@@H]1[C@H](F)C(=O)N[C@@H]1COc1nccc2cc(C(N)=O)c(OC)cc12", "note": "[ZIMLOVISERTIB]", "values": [{"measurement": "% of inhibition", "setting": "[5]", "value": 2.66, "unit": "%"}, {"measurement": "% of inhibition", "setting": "[6]", "value": 3.8, "unit": "%"}]}
{"compound": "CN(C)C/C=C/C(=O)Nc1ccc(C(=O)N2CCCC(Nc3ncc(Cl)c(-c4c[nH]c5ccccc45)n3)C2)cc1", "note": "(configuration not stated)", "values": [{"measurement": "% of control", "setting": "[7]", "value": 85, "unit": "%"}]}
